# Data: the kinase profiling compilation of Christmann-Franck et al. (2016)
# Experiments:
# Experiment in all cases: radiometric filter-binding kinase assay, Kinase HotSpot
# Conditions in all cases: compound 0.5 µM; ATP 10 µM
# [1] = biological target: ACVR1 (human) (UniProt Q04771)
# [2] = biological target: AKT2 (human) (UniProt P31751)
# [3] = biological target: AURKC (human) (UniProt Q9UQB9)
# [4] = biological target: CDC42BPB (human) (UniProt Q9Y5S2)
# [5] = biological target: CDK4 CCND1 (human) (UniProt P24385+P11802)
# [6] = biological target: CDK4 CCND3 (human) (UniProt P30281+P11802)
# [7] = biological target: CDK6 CCND1 (human) (UniProt Q00534+P24385)
# [8] = biological target: CLK3 (human) (UniProt P49761)
# [9] = biological target: CSNK1E (human) (UniProt P49674)
# [10] = biological target: DAPK2 (human) (UniProt Q9UIK4)
# [11] = biological target: DDR2 (human) (UniProt Q16832)
# [12] = biological target: EPHA4 (human) (UniProt P54764)
# [13] = biological target: ERBB4 (human) (UniProt Q15303)
# [14] = biological target: FER (human) (UniProt P16591)
# [15] = biological target: FGFR1 (human) (UniProt P11362)
# [16] = biological target: FLT1 (human) (UniProt P17948)
# [17] = biological target: GRK7 (human) (UniProt Q8WTQ7)
# [18] = biological target: LIMK1 (human) (UniProt P53667)
# [19] = biological target: LRRK2 (human) (UniProt Q5S007)
# [20] = biological target: MAP3K7 TAB1 (human) (UniProt O43318+Q15750)
# [21] = biological target: MAP4K2 (human) (UniProt Q12851)
# [22] = biological target: MAPK12 (human) (UniProt P53778)
# [23] = biological target: MAPK13 (human) (UniProt O15264)
# [24] = biological target: MAPK8 (human) (UniProt P45983)
# [25] = biological target: MAPKAPK3 (human) (UniProt Q16644)
# [26] = biological target: MST4 (human) (UniProt Q9P289)
# [27] = biological target: NLK (human) (UniProt Q9UBE8)
# [28] = biological target: PDGFRB (human) (UniProt P09619)
# [29] = biological target: PIM2 (human) (UniProt Q9P1W9)
# [30] = biological target: PKN2 (human) (UniProt Q16513)
# [31] = biological target: PLK3 (human) (UniProt Q9H4B4)
# [32] = biological target: PRKCB2 (human) (UniProt P05771)
# [33] = biological target: PRKCZ (human) (UniProt Q05513)
# [34] = biological target: RPS6KA4 KD2 (human) (UniProt O75676)
# [35] = biological target: RPS6KA5 KD2 (human) (UniProt O75582)
# [36] = biological target: SRC (human) (UniProt P12931)
# [37] = biological target: SYK (human) (UniProt P43405)
# [38] = biological target: TSSK2 (human) (UniProt Q96PF2)
# [39] = biological target: TTK (human) (UniProt P33981)
# [40] = biological target: TYRO3 (human) (UniProt Q06418)
# [41] = biological target: WNK2 (human) (UniProt Q9Y3S1)
# [42] = biological target: WNK3 (human) (UniProt Q9BYP7)
# Sequence of TYRO3 (human) (Q06418 whole entry, looked up): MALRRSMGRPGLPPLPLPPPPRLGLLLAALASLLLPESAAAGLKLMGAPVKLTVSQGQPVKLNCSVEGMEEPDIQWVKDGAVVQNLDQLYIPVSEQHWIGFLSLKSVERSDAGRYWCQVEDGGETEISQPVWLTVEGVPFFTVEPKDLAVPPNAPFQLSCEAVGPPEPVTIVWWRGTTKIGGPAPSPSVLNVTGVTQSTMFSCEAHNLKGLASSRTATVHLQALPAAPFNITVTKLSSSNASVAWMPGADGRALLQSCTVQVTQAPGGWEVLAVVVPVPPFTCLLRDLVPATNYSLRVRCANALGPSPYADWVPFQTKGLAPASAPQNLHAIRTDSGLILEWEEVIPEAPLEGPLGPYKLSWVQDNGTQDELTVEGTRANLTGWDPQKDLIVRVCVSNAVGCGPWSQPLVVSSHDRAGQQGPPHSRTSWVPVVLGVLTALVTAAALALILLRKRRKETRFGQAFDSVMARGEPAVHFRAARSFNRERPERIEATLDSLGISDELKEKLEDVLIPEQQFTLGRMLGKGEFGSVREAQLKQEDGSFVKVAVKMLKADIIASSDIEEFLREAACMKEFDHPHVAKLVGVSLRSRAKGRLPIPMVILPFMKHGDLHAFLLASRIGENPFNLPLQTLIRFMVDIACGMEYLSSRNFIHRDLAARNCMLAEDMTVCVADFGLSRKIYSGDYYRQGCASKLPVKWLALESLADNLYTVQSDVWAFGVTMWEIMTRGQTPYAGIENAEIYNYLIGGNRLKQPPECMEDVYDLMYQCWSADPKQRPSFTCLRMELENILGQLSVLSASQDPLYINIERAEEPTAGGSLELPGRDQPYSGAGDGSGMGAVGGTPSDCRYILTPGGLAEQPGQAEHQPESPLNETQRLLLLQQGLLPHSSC
# Sequence of FLT1 (human) (P17948 whole entry, looked up): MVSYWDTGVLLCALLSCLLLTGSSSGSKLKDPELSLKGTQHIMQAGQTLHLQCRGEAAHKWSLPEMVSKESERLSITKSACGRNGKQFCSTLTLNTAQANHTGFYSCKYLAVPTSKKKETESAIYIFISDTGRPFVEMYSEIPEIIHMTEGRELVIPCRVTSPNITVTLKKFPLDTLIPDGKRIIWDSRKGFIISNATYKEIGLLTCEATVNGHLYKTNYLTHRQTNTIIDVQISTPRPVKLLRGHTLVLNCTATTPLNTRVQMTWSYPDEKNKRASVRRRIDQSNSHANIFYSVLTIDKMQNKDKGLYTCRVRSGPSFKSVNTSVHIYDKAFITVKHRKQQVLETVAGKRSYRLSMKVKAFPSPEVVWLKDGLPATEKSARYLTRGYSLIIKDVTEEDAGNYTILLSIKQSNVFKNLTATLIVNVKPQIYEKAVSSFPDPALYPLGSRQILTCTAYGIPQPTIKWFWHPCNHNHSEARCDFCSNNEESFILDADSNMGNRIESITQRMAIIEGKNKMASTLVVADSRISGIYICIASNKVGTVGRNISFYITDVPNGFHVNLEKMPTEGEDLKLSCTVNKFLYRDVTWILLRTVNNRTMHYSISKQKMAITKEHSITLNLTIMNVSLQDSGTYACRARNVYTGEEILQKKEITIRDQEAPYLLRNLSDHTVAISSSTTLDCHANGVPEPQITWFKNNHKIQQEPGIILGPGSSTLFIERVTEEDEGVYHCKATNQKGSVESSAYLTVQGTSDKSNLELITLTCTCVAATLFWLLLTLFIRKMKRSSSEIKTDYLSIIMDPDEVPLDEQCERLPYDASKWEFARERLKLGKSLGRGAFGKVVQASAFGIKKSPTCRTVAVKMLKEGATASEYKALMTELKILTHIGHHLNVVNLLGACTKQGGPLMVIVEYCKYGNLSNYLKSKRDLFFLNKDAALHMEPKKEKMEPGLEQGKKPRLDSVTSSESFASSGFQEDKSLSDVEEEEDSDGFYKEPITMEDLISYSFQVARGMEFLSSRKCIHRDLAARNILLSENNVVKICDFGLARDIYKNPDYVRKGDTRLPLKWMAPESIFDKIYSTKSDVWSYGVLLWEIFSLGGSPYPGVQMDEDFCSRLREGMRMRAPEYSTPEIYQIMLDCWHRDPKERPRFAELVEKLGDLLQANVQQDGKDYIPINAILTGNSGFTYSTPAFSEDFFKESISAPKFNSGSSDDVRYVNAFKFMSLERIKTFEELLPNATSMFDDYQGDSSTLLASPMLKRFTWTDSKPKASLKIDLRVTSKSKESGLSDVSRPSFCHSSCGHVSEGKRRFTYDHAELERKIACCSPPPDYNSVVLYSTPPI
# Sequence of CLK3 (human) (P49761 whole entry, looked up): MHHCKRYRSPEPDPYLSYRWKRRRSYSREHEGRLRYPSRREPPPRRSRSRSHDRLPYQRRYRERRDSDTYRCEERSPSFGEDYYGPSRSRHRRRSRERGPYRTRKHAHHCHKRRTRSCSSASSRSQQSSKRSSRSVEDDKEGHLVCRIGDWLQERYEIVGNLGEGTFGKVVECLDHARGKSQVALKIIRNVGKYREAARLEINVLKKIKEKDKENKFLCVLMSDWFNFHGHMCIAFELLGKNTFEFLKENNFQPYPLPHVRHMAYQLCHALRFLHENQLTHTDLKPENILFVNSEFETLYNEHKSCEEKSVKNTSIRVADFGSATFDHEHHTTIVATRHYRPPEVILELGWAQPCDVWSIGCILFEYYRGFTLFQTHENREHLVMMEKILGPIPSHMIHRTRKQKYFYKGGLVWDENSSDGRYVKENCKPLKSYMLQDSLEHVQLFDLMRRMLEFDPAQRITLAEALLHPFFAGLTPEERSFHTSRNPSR
# Sequence of EPHA4 (human) (P54764 whole entry, looked up): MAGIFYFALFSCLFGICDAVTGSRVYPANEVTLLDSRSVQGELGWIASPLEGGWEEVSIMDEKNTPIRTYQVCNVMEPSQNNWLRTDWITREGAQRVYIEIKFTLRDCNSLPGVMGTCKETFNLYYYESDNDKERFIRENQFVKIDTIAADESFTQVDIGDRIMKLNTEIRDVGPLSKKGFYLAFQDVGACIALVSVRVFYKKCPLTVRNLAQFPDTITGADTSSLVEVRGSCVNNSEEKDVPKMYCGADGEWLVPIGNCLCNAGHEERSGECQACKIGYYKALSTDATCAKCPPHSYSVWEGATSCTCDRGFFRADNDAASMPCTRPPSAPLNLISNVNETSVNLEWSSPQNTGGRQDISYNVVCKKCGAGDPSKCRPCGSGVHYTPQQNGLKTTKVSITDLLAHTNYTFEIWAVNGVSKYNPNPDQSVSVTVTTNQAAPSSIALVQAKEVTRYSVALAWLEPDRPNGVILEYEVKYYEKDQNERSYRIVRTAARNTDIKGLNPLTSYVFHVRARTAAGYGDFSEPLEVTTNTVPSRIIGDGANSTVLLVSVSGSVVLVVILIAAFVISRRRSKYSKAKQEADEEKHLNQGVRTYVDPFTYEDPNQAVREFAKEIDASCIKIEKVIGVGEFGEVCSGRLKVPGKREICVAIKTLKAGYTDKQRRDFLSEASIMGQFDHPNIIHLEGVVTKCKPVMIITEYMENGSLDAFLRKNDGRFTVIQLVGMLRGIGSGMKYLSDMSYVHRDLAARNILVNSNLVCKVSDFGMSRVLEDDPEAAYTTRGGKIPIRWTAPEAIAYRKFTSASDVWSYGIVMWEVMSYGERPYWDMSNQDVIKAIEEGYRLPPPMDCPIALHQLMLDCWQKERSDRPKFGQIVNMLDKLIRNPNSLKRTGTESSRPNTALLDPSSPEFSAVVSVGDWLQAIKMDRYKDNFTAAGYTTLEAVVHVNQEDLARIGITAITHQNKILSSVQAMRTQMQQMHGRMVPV
# Sequence of TTK (human) (P33981 whole entry, looked up): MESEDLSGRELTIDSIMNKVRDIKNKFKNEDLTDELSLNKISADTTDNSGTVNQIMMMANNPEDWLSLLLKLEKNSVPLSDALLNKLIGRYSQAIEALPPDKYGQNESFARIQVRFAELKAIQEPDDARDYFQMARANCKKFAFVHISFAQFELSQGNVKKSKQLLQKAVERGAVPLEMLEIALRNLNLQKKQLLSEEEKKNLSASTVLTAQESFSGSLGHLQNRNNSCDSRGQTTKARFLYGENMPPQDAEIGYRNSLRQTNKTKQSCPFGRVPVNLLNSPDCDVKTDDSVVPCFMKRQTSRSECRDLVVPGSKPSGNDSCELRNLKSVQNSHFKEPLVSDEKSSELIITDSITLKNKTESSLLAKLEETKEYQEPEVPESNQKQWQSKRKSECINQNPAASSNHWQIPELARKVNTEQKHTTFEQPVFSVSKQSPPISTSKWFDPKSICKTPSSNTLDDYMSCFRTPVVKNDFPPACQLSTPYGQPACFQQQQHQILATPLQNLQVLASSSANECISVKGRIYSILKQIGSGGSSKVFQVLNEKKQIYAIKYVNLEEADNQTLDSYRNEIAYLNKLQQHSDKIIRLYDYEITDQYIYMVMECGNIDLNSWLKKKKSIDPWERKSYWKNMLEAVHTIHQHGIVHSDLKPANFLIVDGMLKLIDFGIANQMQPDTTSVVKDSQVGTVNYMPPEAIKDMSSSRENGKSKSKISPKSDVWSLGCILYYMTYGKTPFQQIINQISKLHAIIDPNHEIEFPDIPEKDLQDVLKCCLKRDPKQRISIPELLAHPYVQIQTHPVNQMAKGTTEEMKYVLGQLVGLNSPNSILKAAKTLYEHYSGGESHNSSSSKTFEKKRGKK
# Sequence of AKT2 (human) (P31751 whole entry, looked up): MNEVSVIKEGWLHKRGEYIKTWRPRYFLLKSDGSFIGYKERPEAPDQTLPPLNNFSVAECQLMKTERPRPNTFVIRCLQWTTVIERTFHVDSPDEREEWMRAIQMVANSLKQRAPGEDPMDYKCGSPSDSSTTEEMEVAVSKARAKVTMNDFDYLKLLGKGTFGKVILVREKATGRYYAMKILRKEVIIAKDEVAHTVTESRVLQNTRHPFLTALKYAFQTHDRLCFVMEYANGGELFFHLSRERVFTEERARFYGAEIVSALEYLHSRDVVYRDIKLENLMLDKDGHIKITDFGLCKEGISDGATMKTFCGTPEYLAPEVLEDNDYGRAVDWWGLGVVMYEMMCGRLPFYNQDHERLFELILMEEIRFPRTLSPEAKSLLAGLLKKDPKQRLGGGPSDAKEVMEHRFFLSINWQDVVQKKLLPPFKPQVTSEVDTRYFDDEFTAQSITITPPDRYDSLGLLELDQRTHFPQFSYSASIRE
structure (smiles),measurement,setting,value
O=C(c1ccccc1)c1ccc(N2CCOCC2)cc1O,residual activity,[1],107%
same,residual activity,[2],97.9%
same,residual activity,[3],102%
same,residual activity,[4],90.9%
same,residual activity,[5],96.1%
same,residual activity,[6],96.2%
same,residual activity,[7],97.8%
same,residual activity,[8],90.2%
same,residual activity,[9],97.7%
same,residual activity,[10],102%
same,residual activity,[11],103%
same,residual activity,[12],103%
same,residual activity,[13],102%
same,residual activity,[14],94.2%
same,residual activity,[15],95.9%
same,residual activity,[16],97.4%
same,residual activity,[17],99.6%
same,residual activity,[18],83.9%
same,residual activity,[19],95.4%
same,residual activity,[20],101%
same,residual activity,[21],116%
same,residual activity,[22],100%
same,residual activity,[23],106%
same,residual activity,[24],99.5%
same,residual activity,[25],106%
same,residual activity,[26],101%
same,residual activity,[27],97.3%
same,residual activity,[28],96.5%
same,residual activity,[29],105%
same,residual activity,[30],96.8%
same,residual activity,[31],99.1%
same,residual activity,[32],99.2%
same,residual activity,[33],85%
same,residual activity,[34],105%
same,residual activity,[35],102%
same,residual activity,[36],97.8%
same,residual activity,[37],96.6%
same,residual activity,[38],104%
same,residual activity,[39],104%
same,residual activity,[40],101%
same,residual activity,[41],100%
same,residual activity,[42],104%
O=c1c(-c2ccc(F)cc2)c(-c2ccncc2)[nH]n1-c1ccc(Cl)cc1,residual activity,[1],91.7%
same,residual activity,[2],97.8%
same,residual activity,[3],100%
same,residual activity,[4],103%
same,residual activity,[5],102%
same,residual activity,[6],101%
same,residual activity,[7],92.3%
same,residual activity,[8],88.7%
same,residual activity,[9],35%
same,residual activity,[10],104%
same,residual activity,[11],90.6%
same,residual activity,[12],93.5%
same,residual activity,[13],73.2%
same,residual activity,[14],94.3%
same,residual activity,[15],93.7%
same,residual activity,[16],81.3%
same,residual activity,[18],91.5%
same,residual activity,[19],102%
same,residual activity,[20],100%
same,residual activity,[21],87.7%
same,residual activity,[22],85.2%
same,residual activity,[23],102%
same,residual activity,[24],90.2%
same,residual activity,[25],101%
same,residual activity,[26],94.1%
same,residual activity,[27],16%
same,residual activity,[28],101%
same,residual activity,[29],114%
same,residual activity,[30],96.4%
same,residual activity,[31],96.3%
same,residual activity,[32],92.4%
same,residual activity,[33],99%
same,residual activity,[34],103%
same,residual activity,[35],93.5%
same,residual activity,[36],91.6%
same,residual activity,[37],98.9%
same,residual activity,[38],80%
same,residual activity,[39],110%
same,residual activity,[40],105%
same,residual activity,[41],112%
same,residual activity,[42],93.6%
